PubChem BioAssay (NCI)
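Following 48 hours of exposure in 96-well plates, responses at five concentrations were used to interpolate endpoints linearly. GI50: concentration for 50% inhibition of growth. TGI denotes the concentration required for complete inhibition of growth.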

Tests used:
Assay in all cases: inhibition of tumour cell growth, NCI panel, 48 h
M19-MEL melanoma = system: M19-MEL melanoma
OVCAR-8 ovarian = system: OVCAR-8 ovarian
UACC-257 melanoma = system: UACC-257 melanoma
SF-539 CNS = system: SF-539 CNS
HCT-15 colon = system: HCT-15 colon
LXFL 529 NSCLC = system: LXFL 529 NSCLC
IGROV1 ovarian = system: IGROV1 ovarian
SNB-75 CNS = system: SNB-75 CNS
LOX IMVI melanoma = system: LOX IMVI melanoma
NCI/ADR-RES ovarian = system: NCI/ADR-RES ovarian
PC-3 prostate = system: PC-3 prostate

Row | SMILES | TGI (M19-MEL melanoma) | TGI (OVCAR-8 ovarian) | TGI (UACC-257 melanoma) | TGI (SF-539 CNS) | TGI (HCT-15 colon) | TGI (LXFL 529 NSCLC) | TGI (IGROV1 ovarian) | TGI (SNB-75 CNS) | TGI (LOX IMVI melanoma) | TGI (NCI/ADR-RES ovarian) | TGI (PC-3 prostate) | GI50 (OVCAR-8 ovarian) | GI50 (UACC-257 melanoma) | GI50 (SF-539 CNS) | GI50 (HCT-15 colon) | GI50 (NCI/ADR-RES ovarian) | GI50 (PC-3 prostate) | GI50 (IGROV1 ovarian) | GI50 (SNB-75 CNS) | GI50 (LOX IMVI melanoma)
1 | CC(=O)Nc1ccc(-c2nnc(SCC(=O)Nc3ccccc3C)o2)cc1 | > 100 µM | > 100 µM | > 100 µM | > 100 µM | > 100 µM | > 100 µM | > 100 µM | > 100 µM | > 100 µM |  |  |  |  |  |  |  |  |  |  | 
2 | COC(=O)n1c(CBr)c(Br)c2ccccc21 | > 100 µM | > 100 µM | > 100 µM | > 100 µM | > 100 µM |  | 93.1 µM | 47.1 µM |  |  |  |  |  |  |  |  |  |  |  | 
3 | COc1nc2[nH]ccc2c(=O)n1C |  | > 100 µM | > 100 µM | > 100 µM | > 100 µM | > 100 µM | > 100 µM | > 100 µM | > 100 µM |  |  |  |  |  |  |  |  |  |  | 
4 | c1ccc(Nc2nnc(-c3nsc4ccccc34)o2)cc1 | > 100 µM | > 100 µM | > 100 µM | > 100 µM | > 100 µM | > 100 µM | > 100 µM | 78.4 µM | > 100 µM |  |  |  |  |  |  |  |  |  |  | 
5 | CC(=N\N=C\c1ccccn1)/C(C)=N/N=C(C)/C(C)=N/N=C(C)/C(C)=N/N=C/c1ccccn1 |  | > 100 µM | > 100 µM | > 100 µM | > 100 µM |  | > 100 µM | > 100 µM | > 100 µM | > 100 µM | > 100 µM |  |  |  |  |  |  |  |  | 
6 | N#Cc1nc(/C=C/c2ccccc2)oc1N |  | > 100 µM | > 100 µM | > 100 µM | > 100 µM |  | > 100 µM | > 100 µM | > 100 µM | > 100 µM | > 100 µM |  |  |  |  |  |  |  |  | 
7 | N#Cc1c(N2CCN(c3ccc([N+](=O)[O-])cc3)CC2)[n+](=O)c2ccc(Cl)cc2n1[O-] |  | > 22.9 µM | 8.21 µM | 4.37 µM | 2.17 µM |  | 2.01 µM | > 27.9 µM | 1.15 µM | 7.85 µM | > 36.2 µM |  |  |  |  |  |  |  |  | 
8 | COc1ccc2c(c1)-c1oc3ccccc3c(=O)c1CO2 |  | > 100 µM | 99.3 µM | > 100 µM | > 100 µM |  | > 100 µM | 73 µM | 44.5 µM | > 100 µM | > 100 µM |  |  |  |  |  |  |  |  | 
9 | O=C(C#Cc1cn(C2CC(O)C(CO)O2)c(=O)[nH]c1=O)c1ccccc1 (stereo not drawn) |  | > 100 µM | > 100 µM | 52.5 µM | > 100 µM |  | > 100 µM | > 100 µM | > 100 µM | > 100 µM | > 100 µM |  |  |  |  |  |  |  |  | 
10 | COC(=O)c1ccccc1CC(Cc1ccccc1)C(=O)OC (stereo not drawn) |  | > 100 µM | > 100 µM | > 100 µM | > 100 µM |  | > 100 µM | 73.7 µM | > 100 µM | > 100 µM | > 100 µM |  |  |  |  |  |  |  |  | 
11 | Clc1ncnc2c1ncn2CCCCCCCCCCCCn1cnc2c(Cl)ncnc21 | 5.7 µM | 23.8 µM | 11.9 µM | 27.8 µM | 25.8 µM | 17.5 µM | 15.7 µM |  | 7.19 µM |  |  |  |  |  |  |  |  |  |  | 
12 | Nc1nc(SCCC/C=C/I)nc2c1ncn2C1OC(CO)C(O)C1O (stereo not drawn) | > 202 µM | > 202 µM | > 202 µM | > 202 µM | > 202 µM |  | > 202 µM | > 202 µM | > 202 µM |  |  |  |  |  |  |  |  |  |  | 
13 | CCC(C)C1(O)OC2CC3(C)OC(=CC3=O)/C(C)=C\C3OC(=O)C1(C)C32 (stereo not drawn) |  | 59.9 µM | 45.7 µM | > 100 µM | 17.3 µM |  | 53.5 µM | > 100 µM | 49.4 µM | > 100 µM | > 100 µM |  |  |  |  |  |  |  |  | 
14 | CCS(=O)(=O)c1c2cc(OC)ccc2nc2ccc(OC)cc12 |  | > 100 µM | > 100 µM | > 100 µM | > 100 µM |  | > 100 µM | > 100 µM | > 100 µM | > 100 µM | > 100 µM |  |  |  |  |  |  |  |  | 
15 | CCOC12SC(=Nc3ccc(C)cc3)NN1C(=S)N(C)N=C2C (stereo not drawn) | > 100 µM | > 100 µM | > 100 µM | > 100 µM | > 100 µM | > 100 µM | > 100 µM | > 100 µM | > 100 µM |  |  |  |  |  |  |  |  |  |  | 
16 | O=C(Nc1cccc(-n2ccc3c(NC(=O)c4ccccc4)nccc32)c1)c1cc(N2CCOCC2)cc(C(F)(F)F)c1 |  | > 100 µM | > 100 µM | 0.94 µM |  |  | > 100 µM | 0.678 µM | > 100 µM | > 100 µM | > 100 µM | 0.286 µM | 0.109 µM | 0.0675 µM | 0.0395 µM | 0.09 µM | 0.152 µM | 0.235 µM | 0.0362 µM | 0.0912 µM
17 | Cc1ccc2nc(Cl)c(/C=N/N3C(=O)/C(=C/c4ccc(N(C)C)cc4)N=C3c3ccccc3)cc2c1 |  | > 100 µM | > 100 µM | 52.4 µM | > 100 µM |  | > 100 µM | > 100 µM | > 100 µM | > 100 µM | > 100 µM |  |  |  |  |  |  |  |  | 
18 | O=C1C(N=Nc2ccc(-c3nc4ccccc4[nH]3)cc2)NC(=S)N1c1ccccc1 (stereo not drawn) |  | > 100 µM | > 100 µM | > 100 µM | 43.8 µM |  | > 100 µM | > 100 µM | 39.4 µM | > 100 µM | > 100 µM |  |  |  |  |  |  |  |  | 
19 | CN1CCCCC(C(O)(c2ccccc2)c2ccccc2)C1=O (stereo not drawn) | > 100 µM | > 100 µM | > 100 µM | > 100 µM | 32.1 µM | > 100 µM | > 100 µM | > 100 µM | > 100 µM |  |  |  |  |  |  |  |  |  |  | 
20 | CC(=O)NC1=C(C)C(=O)c2c(nc3n2CC[C@H]3OC(C)=O)C1=O |  | 6.75 µM | 2.2 µM | 4.38 µM | 12.6 µM |  | 8.71 µM | 9.18 µM | 2.11 µM | 15.6 µM | 1.99 µM |  |  |  |  |  |  |  |  | 
